Reference: patent US9775819B2, “Oral solid dosage form containing nanoparticles and process of formulating the same using fish gelatin” (R.P. SCHERER TECHNOLOGIES, LLC, priority 2009, dated 2017)

Test: Particle size (d50) by laser light diffraction, Malvern Mastersizer 2000
Type: physicochemical
Conditions: unmilled active ingredient
Description: During step (a) of the method of the invention, the suspension may be recycled if necessary and the process of particle size reduction continued until the desired nanoparticle size of the active ingredient is obtained. The size of the nanoparticles within the nanosuspension is typically measured using well known techniques, such as laser light diffraction methodology using, e.g., a Malvern Mastersizer 2000 particle size analyzer (Malvern Instruments, Westborough Mass.). Particle size measurements are typically described using parameters such as d50, a parameter that represents the size above and below which one finds 50% of the volume of all particles, also known as the volume weighted median. Accordingly, d50 represents a median particle size value. According to the invention, the solution is milled until a d50 ranging preferably from about 1 nm to about 900 nm, more preferably from about 10 nm to about 800 nm, and most preferably from about 50 nm to about 700 nm is achieved.
An oral solid dosage form comprising the active ingredient naproxen and excipients fish gelatin as nanostabilizer (SMW fish gelatin grade from Norland Products Inc.—Example 1A; and DFG grade from Norland Products Inc.—Example 1B) and mannitol as bulking agent was prepared. An aqueous solution of 5% fish gelatin and 3% mannitol was prepared; then naproxen was added to this solution to form a suspension slurry. The suspension slurry was charged into a 600 cc chamber-size Dyno® Mill containing zirconium milling media. Naproxen concentration in the milling slurry was 15% by weight. Milling was performed on recirculating suspension for 1.5 hours using the default milling conditions for this equipment. The resultant bulk nanosuspension was discharged from the mill, and 250 mg unit doses were accurately dispensed into 0.25 mL capacity blister pockets using an IVEK pump controlled using a Digispense unit. Blister pockets were frozen in an Air Products CM2000 freezer using liquid nitrogen as coolant and a 3 minute freezing time, then held in a freezer until transfer to pre-cooled freeze-drier shelves. […]

SMILES | d50
COc1ccc2c(c1)c(CC(=O)O)c(C)n2C(=O)c1ccc(Cl)cc1 [indomethacin] | 37 μm
COc1ccc2cc([C@H](C)C(=O)O)ccc2c1 [naproxen] | 22 μm
CCOc1ccc(NC(C)=O)cc1 [phenacetin] | 83 μm
